From US8207176B2 (Glaxo Group Limited, priority 2005, dated 2012)

Key:
[1] = target: T1, Recombinant human p38α (MKK6-activated) (Homo sapiens, UniProt Q16539); assay: Time-resolved fluorescence resonance energy transfer (TR-FRET) kinase assay (standard or low volume); assay type: biochemical; set-up: key: Compounds are considered active in this assay if they demonstrate a pIC50 of greater than 4.6 up to about a pIC50 of greater than 10.0; conditions: MKK6-activated p38α 100 pM, GST-ATF2 400 nM, 120 minutes at room temperature; either assay format
T1 construct: His; made in house
Description: It is noted that there are two assay formats shown above for the Fluorescence anisotropy kinase binding assay. The only difference between these two assays is the volume used and the plate type. […] The results described herein may have been performed in either assay format and are not differentiated as to which. […] TR-FRET Assay Time-Resolved Fluorescence Resonance Energy Transfer Kinase Standard Assay Recombinant human p38α was expressed as a His-tagged protein. To activate this protein, 3 μM unactivated p38α was incubated in 200 mM Hepes pH 7.4, 625 mM NaCl, 1 mM DTT with 27 nM active MKK6 (Upstate), 1 mM ATP and 10 mM MgCl2 The activity of the MKK6-activated p38α was assessed using a time-resolved fluorescence resonance energy transfer (TR-FRET) assay. Biotinylated-GST-ATF2 (residues 19-96, 400 nM final), ATP ([…]) and MgCl2 (5 mM final) in assay buffer (40 mM HEPES pH 7.4, 1 mM DTT) were added to wells containing 1 ul of various concentrations of compound or DMSO vehicle (3% final) in NUNC 384 well black plate. The reaction was initiated by the addition of MKK6-activated p38 (100 pM final) to give a total volume of 30 ul. The reaction was incubated for 120 minutes at room temperature, then terminated by the addition of 15 μl of 100 mM EDTA pH 7.4. Detection reagent (15 μl) in buffer (100 mM HEPES pH 7.4, 150 mM NaCl, 0.1% w/v BSA, 1 mM DTT) containing antiphosphothreonine-ATF2-71 polyclonal antibody (Cell Signalling Technology, Beverly Mass., USA) labelled with W-1024 europium chelate (Wallac OY, Turku, Finland), and APC-labelled streptavidin (Prozyme, San Leandro, Calif., USA) was added and the reaction was further incubated for 60 minutes at room temperature. The degree of phosphorylation of GST-ATF2 was measured using a Packard Discovery plate reader (Perkin-Elmer Life Sciences, Pangbourne, UK) as a ratio of specific 665 nm energy transfer signal to reference europium 620 nm signal. Time-Resolved Fluorescence Resonance Energy Transfer Kinase Low Volume Assay Recombinant human p38α was expressed as a His-tagged protein. To activate this protein, 3 μM unactivated p38α was incubated in 200 mM Hepes pH7.4, 625 mM NaCl, 1 mM DTT with 27 nM active MKK6 (Upstate), 1 mM ATP and 10 mM MgCl2 The activity of the MKK6-activated p38α was assessed using a time-resolved fluorescence resonance energy transfer (TR-FRET) assay. Biotinylated-GST-ATF2 (residues 19-96, 400 nM final), ATP (125 μM final) and MgCl2 ([…]) in assay buffer (40 mM HEPES pH 7.4, 1 mM DTT) were added to wells containing 0.1 μl of various concentrations of compound or DMSO vehicle (1.7% final) in Greiner low volume 384 well black plate. The reaction was initiated by the addition of MKK6-activated p38α (100 pM final) to give a total volume of 6 μl. The reaction was incubated for 120 minutes at room temperature, then terminated by the addition of 3 μl of detection reagent in buffer (100 mM HEPES pH 7.4, 150 mM NaCl, 0.1% w/v BSA, 1 mM DTT, 100 mM EDTA) containing antiphosphothreonine-ATF2-71 polyclonal antibody (Cell Signalling Technology, Beverly Mass., USA) labelled with W-1024 europium chelate (Wallac OY, Turku, Finland), and APC-labelled streptavidin (Prozyme, San Leandro, Calif., USA). The reaction was further incubated for 60 minutes at room temperature. The degree of phosphorylation of GST-ATF2 was measured using a BMG Rubystar plate reader (BMG, UK) as a ratio of specific 665 nm energy transfer signal to reference europium 620 nm signal. It is noted that there are two assay formats shown above for the Time-resolved fluorescence resonance energy transfer kinase assay. The only difference between these two assays is the volume used and the plate type. […] The results described herein may have been performed in either assay format and are not differentiated as to which. […] For purposes herein the HTRF assay and the Fluorescence anisotropy kinase binding assay: […]

[2] = system: influx of neutrophils to the lung in LPS-challenged rats; assay: Rat LPS neutrophilia model; assay type: in vivo; conditions: intratracheal, LPS aerosol 100 ug/ml 15 min, lavage 4 hours later, in at least one of the range of conditions tested, significant p<0.05, nonsignificant p>0.05
How it was run: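 Compound was given intratracheally (200 ul, suspension or dry powder) 15 min–24 hours before a 15 min aerosol of LPS (100 ug/ml). Bronchoalveolar lavage was taken 4 hours after challenge for differential cell counts. Values are % inhibition of neutrophils versus no-compound controls at a given concentration and pretreat time.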

T1 sequence (Q16539 whole entry): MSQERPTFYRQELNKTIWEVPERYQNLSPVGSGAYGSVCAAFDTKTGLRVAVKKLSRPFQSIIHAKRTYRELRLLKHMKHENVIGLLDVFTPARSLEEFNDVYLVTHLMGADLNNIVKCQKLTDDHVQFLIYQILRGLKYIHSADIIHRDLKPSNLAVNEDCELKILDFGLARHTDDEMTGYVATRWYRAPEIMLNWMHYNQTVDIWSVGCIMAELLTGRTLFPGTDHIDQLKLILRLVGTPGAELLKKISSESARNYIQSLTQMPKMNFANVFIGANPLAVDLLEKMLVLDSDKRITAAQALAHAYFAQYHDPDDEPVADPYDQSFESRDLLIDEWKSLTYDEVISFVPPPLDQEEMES

Structure (SMILES) | pIC50, reported as active [1] | inhibition of neutrophilia (neutrophil levels in lung lavage relative to no compound controls) [2]
Cc1ccc(NC(=O)c2ccsc2)cc1-c1nc(NC2CC(C)(C)NC(C)(C)C2)nc2c1ccc(=O)n2-c1c(F)cccc1F [31(e), N-(3-{8-(2,6-difluorophenyl)-7-oxo-2-[(2,2,6,6-tetramethyl-4-piperidinyl)amino]-7,8-dihydropyrido[2,3-d]pyrimidin-4-yl}-4-methylphenyl)-3-thiophenecarboxamide] | active | statistically significant inhibition
Cc1ccc(C(=O)Nc2ccc(F)cc2)cc1-c1nc(NCc2ncc[nH]2)nc2c1ccc(=O)n2-c1c(F)cccc1F [Example 78] | active | statistically significant inhibition
Cc1ccc(C(=O)NC(C)C)cc1-c1nc(N2CCC(N3CCC(C)CC3)CC2)nc2c1ccc(=O)n2-c1c(F)cccc1F [163(c), 3-[8-(2,6-difluorophenyl)-2-(4-methyl-1,4′-bipiperidin-1′-yl)-7-oxo-7,8-dihydropyrido[2,3-d]pyrimidin-4-yl]-4-methyl-N-(1-methylethyl)benzamide] | active | statistically nonsignificant inhibition
CCCNC(=O)c1ccc(C)c(-c2nc(NCCNC)nc3c2ccc(=O)n3-c2c(F)cccc2F)c1 [56(d), 3-(8-(2,6-difluorophenyl)-2-{[2-(methylamino)ethyl]amino}-7-oxo-7,8-dihydropyrido[2,3-d]pyrimidin-4-yl)-4-methyl-N-propylbenzamide] | active | statistically significant inhibition
Cc1ccc(C(=O)NC(C)C)cc1-c1nc(NCc2ncc[nH]2)nc2c1ccc(=O)n2-c1c(F)cccc1F [Example 74, 3-{8-(2,6-difluorophenyl)-2-[(1H-imidazol-2-ylmethyl)amino]-7-oxo-7,8-dihydropyrido[2,3-d]pyrimidin-4-yl}-4-methyl-N-(1-methylethyl)benzamide] | active | –
CCN(CC)CCCNc1nc(-c2cc(C(=O)NC(C)C)cc(F)c2C)c2ccc(=O)n(-c3c(F)cccc3F)c2n1 [179(c), 3-[2-{[3-(diethylamino)propyl]amino}-8-(2,6-difluorophenyl)-7-oxo-7,8-dihydropyrido[2,3-d]pyrimidin-4-yl]-5-fluoro-4-methyl-N-(1-methylethyl)benzamide] | active | –
CNC1CCN(c2nc(-c3cc(C(=O)Nc4ccc(F)cc4)ccc3C)c3ccc(=O)n(-c4c(F)cccc4F)c3n2)CC1 [114(b), 3-{8-(2,6-difluorophenyl)-2-[4-(methylamino)-1-piperidinyl]-7-oxo-7,8-dihydropyrido[2,3-d]pyrimidin-4-yl}-N-(4-fluorophenyl)-4-methylbenzamide] | active | –
Cc1ccc(C(=O)NC2CC2)cc1-c1nc(NC(CO)CO)nc2c1ccc(=O)n2-c1c(F)cccc1F [Example 36, N-cyclopropyl-3-(8-(2,6-difluorophenyl)-2-{[2-hydroxy-1-(hydroxymethyl)ethyl]-amino}-7-oxo-7,8-dihydropyrido[2,3-d]pyrimidin-4-yl)-4-methylbenzamide] | active | –
CCCNC(=O)c1ccc(-c2nc(NCCCN(CC)CC)nc3c2ccc(=O)n3-c2c(F)cccc2F)cc1 [188(b), 4-[2-{[3-(diethylamino)propyl]amino}-8-(2,6-difluorophenyl)-7-oxo-7,8-dihydropyrido[2,3-d]pyrimidin-4-yl]-N-propylbenzamide] | active | –
CCN(CC)CCCNc1nc(-c2cccc(C(=O)NC)c2)c2ccc(=O)n(-c3c(F)cccc3F)c2n1 [193(b), 3-[2-{[3-(diethylamino)propyl]amino}-8-(2,6-difluorophenyl)-7-oxo-7,8-dihydropyrido[2,3-d]pyrimidin-4-yl]-N-methylbenzamide] | active | –
Cc1ccc(NC(=O)c2cccs2)cc1-c1nc(NCc2ncc[nH]2)nc2c1ccc(=O)n2-c1c(F)cccc1F [Example 10, N-(3-{8-(2,6-difluorophenyl)-2-[(1H-imidazol-2-ylmethyl)amino]-7-oxo-7,8-dihydropyrido[2,3-d]pyrimidin-4-yl}-4-methylphenyl)-2-thiophenecarboxamide] | active | –
Cc1ccc(NC(=O)c2ccc(Cl)nc2)cc1-c1nc(N2CCC(N)CC2)nc2c1ccc(=O)n2-c1c(F)cccc1F [Example 15, N-{3-[2-(4-amino-1-piperidinyl)-8-(2,6-difluorophenyl)-7-oxo-7,8-dihydropyrido[2,3-d]pyrimidin-4-yl]-4-methylphenyl}-6-chloro-3-pyridinecarboxamide] | active | –
CCN(CC)CCCNc1nc(-c2cc(C(=O)O)ccc2C)c2ccc(=O)n(-c3c(F)cccc3F)c2n1 [118(a), 3-[2-{[3-(diethylamino)propyl]amino}-8-(2,6-difluorophenyl)-7-oxo-7,8-dihydropyrido[2,3-d]-pyrimidin-4-yl]-4-methylbenzoic acid] | active | –
CCN(CC)CCCNc1nc(-c2cc(C(=O)NC(C)C)ccc2C)c2ccc(=O)n(-c3c(F)cccc3F)c2n1 [118(b), 3-[2-{[3-(diethylamino)propyl]amino}-8-(2,6-difluorophenyl)-7-oxo-7,8-dihydropyrido[2,3-d]pyrimidin-4-yl]-4-methyl-N-(1-methylethyl)benzamide] | active | –
CCN(CC)CCCNc1nc(-c2cccc(C(=O)O)c2)c2ccc(=O)n(-c3c(F)cccc3F)c2n1 [193(a), 3-[2-{[3-(diethylamino)propyl]amino}-8-(2,6-difluorophenyl)-7-oxo-7,8-dihydropyrido[2,3-d]pyrimidin-4-yl]benzoic acid] | active | –
Cc1ccc(NC(=O)c2cccs2)cc1-c1nc(NC2CC(C)(C)NC(C)(C)C2)nc2c1ccc(=O)n2-c1c(F)cccc1F [Example 9, N-(3-{8-(2,6-difluorophenyl)-7-oxo-2-[(2,2,6,6-tetramethyl-4-piperidinyl)amino]-7,8-dihydropyrido[2,3-d]pyrimidin-4-yl}-4-methylphenyl)-2-thiophenecarboxamide] | active | –
Cc1ccc(C(=O)O)cc1-c1nc(N2CCC(N3CCC(C)CC3)CC2)nc2c1ccc(=O)n2-c1c(F)cccc1F [163(b), 3-[8-(2,6-difluorophenyl)-2-(4-methyl-1,4′-bipiperidin-1′-yl)-7-oxo-7,8-dihydropyrido[2,3-d]pyrimidin-4-yl]-4-methylbenzoic acid] | active | –
